Source: PubChem BioAssay (NCI)
Several values for one entry are separate records, joined by “and”; a condition that tells them apart may be missing. Equal entries are not always repeated.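 These data come from cells grown in 96-well plates and exposed to compound for 48 hours at five concentrations. GI50: concentration for 50% inhibition of growth. TGI: concentration producing complete growth inhibition.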

How the values were obtained:
Assay in all cases: DTP human tumour cell line panel, 48 h
[1] = tested on: DLD-1 colon
[2] = tested on: DMS 114 small cell lung
[3] = tested on: LXFL 529 NSCLC
[4] = tested on: M19-MEL melanoma
[5] = tested on: SNB-78 CNS
[6] = tested on: DU-145 prostate
[7] = tested on: MDA-MB-231 breast
[8] = tested on: MDA-MB-435
[9] = tested on: PC-3 prostate
[10] = tested on: T-47D breast

Structure (SMILES) | TGI [1] | TGI [2] | TGI [3] | TGI [4] | TGI [5] | also measured
C/C(=N\NS(=O)(=O)c1ccc(C)cc1)c1ccc[n+]([O-])n1 | > 100 µM | > 100 µM | > 100 µM | > 100 µM |  | 
S=C(Nc1ccccc1)Nc1[nH]c(=S)sc1-c1nc2ccccc2[nH]1 | > 100 µM |  | > 100 µM | > 100 µM | > 100 µM | 
CCC1OCCN1C(C)C (stereo not given) | > 100 µM | > 100 µM | > 100 µM | > 100 µM | > 100 µM | 
CCOP(=O)(OCC)/C(C#N)=C\c1cccc2ccccc12 |  |  |  | > 100 µM | > 100 µM | TGI [6]: > 100 µM; TGI [7]: > 100 µM; TGI [8]: > 100 µM; TGI [9]: > 100 µM; TGI [10]: > 100 µM
Cc1nnc2n1N=C(CC(=O)c1ccc(O)cc1O)CN2N | > 100 µM | 40 µM | > 100 µM | > 100 µM | > 100 µM | 
CC1=NN(C(=O)CC(=O)Nc2cccc(Cl)c2)C(=O)C1N=Nc1ccc(S(N)(=O)=O)cc1 (stereo not given) | > 100 µM | > 100 µM | > 100 µM | > 100 µM | > 100 µM | 
O=C(O)c1cc(Cl)cc(NC(=O)C(Cl)Cl)c1Cl | > 100 µM | > 100 µM | > 100 µM | > 100 µM | > 100 µM | 
Cn1c(=O)c2c3oc(=O)cc(O)c3c(=O)n3c4ccccc4n(c1=O)c23 | > 100 µM |  | > 100 µM | > 100 µM | > 100 µM | 
CC1=CC2=C(C)C3(CC3)[C@@](C)(O)C(=O)C2=C1 | > 0.935 µM | 0.313 µM | 0.783 µM | 0.732 µM | > 0.631 µM | 
COC(=O)c1c(C)oc2ccc(OC(C)=O)cc12 |  | > 100 µM |  | > 100 µM | > 100 µM | 
O=C(CCCCCCCCCCc1ccccc1)c1c(O)cccc1O | 39.7 µM | 45.3 µM | 34.7 µM | 42.7 µM | > 100 µM | 
COc1cc2c3c(c1OC)-c1ccccc1C(C(OC(C)=O)c1ccccc1)C3N(C)CC2 (stereo not given) | 91 µM | > 100 µM | > 100 µM | > 100 µM | > 100 µM | 
COC(=O)/C(=N\NC(=O)c1ccccc1O)C(C#N)c1ccc(Cl)cc1 (stereo not given) | > 100 µM | > 100 µM | > 100 µM | > 100 µM | > 100 µM | 
CCOC(=O)/C=C1\Nc2ccccc2C(c2ccccc2)=NC1OC(C)=O (stereo not given) | > 100 µM | > 100 µM | > 100 µM | > 100 µM | > 100 µM | 
COc1ccc2cccc(C(=N)c3ccc(C)c4c3CCC4)c2c1 |  | 19.9 µM | 16.5 µM | 21.5 µM |  | 
CC(=O)NC1C(OCc2ccccc2)OC(COC(=O)CCCCCCCCCCNC(=O)c2cccc3c(=O)c4ccccc4[nH]c23)C(O)C1OC(C)C(=O)NC(C)C(=O)NC(CCC(N)=O)C(N)=O (stereo not given) | > 100 µM | > 100 µM | > 100 µM | > 100 µM | > 100 µM | 
CCOC(=O)CCC1(C(=O)OC)CCCC1=O (stereo not given) | > 100 µM | > 100 µM | > 100 µM | > 100 µM | > 100 µM | 
CC(=O)[CH-]C(=O)c1ccccc1.CC(=O)[CH-]C(=O)c1ccccc1.[O]=[U+2]=[O] | > 100 µM |  | > 100 µM | > 100 µM |  | GI50 [1]: 29.7 µM; GI50 [3]: 32.7 µM; GI50 [4]: 28.9 µM
O=C1OCC(C(=O)c2cccc(O)c2)C1=O (stereo not given) | > 100 µM | > 100 µM | > 100 µM | > 100 µM | > 100 µM | 
N#Cc1c2c(c(N=[N+]=[N-])n3c1nc1ccccc13)CCCC2 | 2.94 µM | 4.37 µM |  | 6.1 µM | 11.5 µM | 
CC(C)c1ccc(/C=C(\NC(=O)c2ccccc2)c2nc3ccccc3[nH]2)cc1 | > 100 µM | 92.8 µM | > 100 µM | > 100 µM | > 100 µM | 
CC(C)OP(=O)(CP(=O)(OC(C)C)OC(C)C)OC(C)C.[CH3][Sn]([Br])([Br])[Br] | > 100 µM | > 100 µM |  | > 100 µM | > 100 µM | GI50 [1]: > 100 µM; GI50 [2]: > 100 µM; GI50 [4]: > 100 µM; GI50 [5]: > 100 µM
Cc1ccc(NC(=O)CCC(=O)C2CC(=O)CC/C2=N\NC(=O)c2cc3ccccc3cc2O)cc1C (stereo not given) | > 100 µM | 51.6 µM | > 100 µM | 90.7 µM | > 100 µM | 

Structure (SMILES) | TGI [1] | TGI [2] | TGI [3] | TGI [4] | TGI [5] | also measured
COc1ccc([Se]c2ccc(OC)cc2OC)c(OC)c1 | > 100 µM | 13 µM | > 100 µM | 87.1 µM | 96.6 µM | 
c1ccc(SCCCC(Sc2ccccc2)Sc2ccccc2)cc1 | > 100 µM | > 100 µM | > 100 µM | > 100 µM | > 100 µM | 
CC1OC(=O)N(CCCC=C2SCCCS2)C1=O (stereo not given) |  | > 100 µM | > 100 µM | > 100 µM | > 100 µM | 
CC1=C(C#N)C(N)=C2C(C)=C(C#N)C(N)=C12 | > 100 µM | > 100 µM | > 100 µM | > 100 µM | > 100 µM | 
c1ccc2c(c1)CCCc1cc3ccccc3nc1-2 | > 100 µM | 75.1 µM | > 100 µM | > 100 µM | > 100 µM | 
COC(=O)C12CC(C3CC31)C1CC12 (stereo not given) | > 100 µM | > 100 µM | > 100 µM | > 100 µM |  | 
c1ccc2c(c1)nc(NCCN1CCNCC1)c1c3ccccc3[nH]c21 |  |  |  |  |  | GI50 [6]: 0.227 µM; TGI [6]: 1.4 µM; GI50 [7]: 0.676 µM; TGI [7]: 2.28 µM; GI50 [8]: 0.798 µM; TGI [8]: 2.24 µM; GI50 [9]: 0.356 µM; TGI [9]: 1.97 µM; GI50 [10]: 0.903 µM; TGI [10]: 3.83 µM
C[C@@H](NC(=O)Cc1cc(F)cc(F)c1)C(=O)N[C@@]1(C)N=C(c2ccccc2)c2ccccc2N(C)C1=O |  |  |  |  |  | GI50 [6]: 30.2 µM; TGI [6]: > 100 µM; GI50 [7]: 15.9 µM; TGI [7]: > 96.6 µM; GI50 [8]: 38.9 µM; TGI [8]: > 100 µM; GI50 [9]: 25.6 µM; TGI [9]: > 100 µM; TGI [10]: > 66.6 µM
COC(=O)/C(C#N)=C1\N=NNN1CCCN1CCOCC1 | > 100 µM | > 100 µM | > 100 µM | > 100 µM | > 100 µM | 
O=C(Oc1c(I)ccccc1=O)c1ccc([N+](=O)[O-])cc1 |  |  |  |  |  | TGI [6]: 26.8 µM; TGI [7]: 87.7 µM; TGI [8]: 42.4 µM; TGI [9]: 75.1 µM; TGI [10]: 1.33 µM
CC1(CC(=O)O)OC2CCCCCC2O1 (stereo not given) (tested in a mixture with another compound) |  |  |  |  |  | TGI [6]: > 100 µM; TGI [7]: > 100 µM; TGI [8]: > 100 µM; TGI [9]: > 100 µM; TGI [10]: > 100 µM
Cc1ccc(NCSc2ccc(Cl)cc2)cc1 |  |  |  |  |  | GI50 [6]: > 100 µM; TGI [6]: > 100 µM; GI50 [7]: 15.1 µM; TGI [7]: > 100 µM; GI50 [8]: 9.99 µM; TGI [8]: > 100 µM; GI50 [9]: 10.2 µM; TGI [9]: > 100 µM; GI50 [10]: 9.55 µM; TGI [10]: > 100 µM
Brc1ccc2c(c1)C1(c3cc(Br)ccc3-2)c2cc(Br)ccc2-c2ccc(Br)cc21 | > 100 µM | > 100 µM | > 100 µM | > 100 µM | > 100 µM | 
NC(Cc1nn[nH]n1)C(=O)O (stereo not given) |  |  |  |  |  | TGI [6]: > 100 µM; TGI [7]: > 100 µM; TGI [8]: > 100 µM; TGI [9]: > 100 µM; TGI [10]: > 100 µM
O=c1c2ccccc2nc(-c2ccccc2)n1NCC1(O)OCC(O)C(O)C1O (stereo not given) | > 100 µM | > 100 µM | > 100 µM | > 100 µM | > 100 µM | 
Cc1nnc([S-])s1.[Au+].c1ccc([PH+](c2ccccc2)c2ccccc2)cc1 |  |  |  |  |  | GI50 [6]: 1.68 µM; TGI [6]: 3.23 µM; GI50 [7]: 1.65 µM; TGI [7]: 3.05 µM; GI50 [8]: 1.7 µM; TGI [8]: 3.18 µM; GI50 [9]: 1.52 µM; TGI [9]: 2.92 µM; GI50 [10]: 2.2 µM; TGI [10]: 6.12 µM
O=C1CCC2(CCC(=O)NC2=O)C(=O)N1 |  | > 100 µM | > 100 µM | > 100 µM |  | 
CO[C@H]1C=C[C@]23c4cc5c(cc4CN(CC2O)[C@@H]3C1)OCO5 (stereo not given in full) |  |  |  |  |  | TGI [6]: 7.62 µM; TGI [7]: 34.6 µM; TGI [8]: 41.9 µM; TGI [9]: 18.6 µM; TGI [10]: 18.2 µM
COC(=O)C(CC=O)C(=O)C(=O)Nc1cccc(C(F)(F)F)c1 (stereo not given) | > 100 µM | > 100 µM | > 100 µM | > 100 µM | > 100 µM | 
C/C(=C(/c1ccc(O)cc1)c1ccc(OCCN2CCCC2)cc1)c1ccccc1 |  |  |  |  |  | GI50 [6]: 9.72 µM; TGI [6]: 21.4 µM; GI50 [7]: 3.51 µM; TGI [7]: 8.4 µM; GI50 [8]: 1.88 µM; TGI [8]: 4.4 µM; GI50 [9]: 4.28 µM; TGI [9]: 14.7 µM; GI50 [10]: 0.716 µM; TGI [10]: 7.93 µM
O=C1c2c(O)cccc2C(C(=O)CCCCC(=O)C2c3cccc(O)c3C(=O)c3c(O)cccc32)c2cccc(O)c21 | 4.52 µM and 9.27 µM | 1.48 µM and 1.83 µM | 1.01 µM and 1.95 µM |  | 1.23 µM and 5.93 µM | GI50 [1]: 1.68 µM; GI50 [2]: 1.01 µM; TGI [6]: 1.81 µM; GI50 [3]: 1.04 µM; TGI [7]: 0.9 µM; TGI [8]: 3.01 µM; TGI [9]: 0.458 µM; GI50 [5]: 1.97 µM; TGI [10]: 0.919 µM
Cc1cc(N(CCC#N)S(=O)(=O)c2ccccc2)ccc1C=O | > 100 µM | > 100 µM | > 100 µM |  | > 100 µM | 
O=C1OC(c2ccc(O)cc2)(c2ccc(O)cc2)c2cccc3cccc1c23 |  |  |  |  |  | GI50 [6]: 17.2 µM; TGI [6]: 31.6 µM; GI50 [7]: 14.2 µM; TGI [7]: 35.5 µM; GI50 [8]: 9.04 µM; TGI [8]: 22.4 µM; GI50 [9]: 11.5 µM; TGI [9]: 29 µM; GI50 [10]: 0.118 µM; TGI [10]: 12 µM
